The results in this text go back to patent publication US8114894B2, “Bicyclic compounds and methods of making and using same” (Nanotherapeutics, Inc., priority 2008, dated 2012).

Molecules are shown by their SMILES. Counter-ions that a name gives are not always drawn.

In this assay the target is T1, human 5-HT4e receptor (Homo sapiens, UniProt Q13639).
T1 construct: expressed in transfected cells; host or cells: CHO cells
The experiment in a line: Binding affinity assay, radioligand [3H]GR 113808 binding in transfected CHO cell membrane homogenates. The settings on record: 0.3 nM [3H]GR 113808; for Ki: human 5-HT4e receptor in transfected CHO cells, read-out: KI (μM or % inhibition); for inhibition at 0.3 µM: @ 0.3 uM test compound; for inhibition at 0.3 µM / inhibition at 3 µM: read-out: KI (μM or % inhibition): percent inhibition of the control radioligand specific binding; for inhibition at 3 µM: @ 3 uM test compound. As for the experimental part:
The evaluation of the affinity of compounds for the human 5-HT4e receptor in transfected CHO cells was determined in a radioligand binding assay. Experimental protocol: Cell membrane homogenates (140 μg protein) were incubated for […] at 37° C. with 0.3 nM [3H]GR 113808 in the absence or presence of the test compound in a buffer containing 50 mM Hepes/Tris (pH 7.4) and 1 μM pargyline. Nonspecific binding was determined in the presence of 100 μM 5-HT. Following incubation, the samples were filtered rapidly under vacuum through glass fiber filters (GF/B, Packard) presoaked with 0.3% PEI and rinsed several times with ice-cold 50 mM Tris-HCl using a 96-sample cell harvester (Unifilter, Packard). The filters were dried then counted for radioactivity in a scintillation counter (Topcount, Packard) using a scintillation cocktail (Microscint 0, Packard). The results are expressed as a percent inhibition of the control radioligand specific binding at a certain concentration of the test compound. The test compound can also be assessed at several concentrations to obtain a competition curve from which its IC50 and Ki are calculated.

T1 sequence (Q13639 1-378 isoform Q13639-5): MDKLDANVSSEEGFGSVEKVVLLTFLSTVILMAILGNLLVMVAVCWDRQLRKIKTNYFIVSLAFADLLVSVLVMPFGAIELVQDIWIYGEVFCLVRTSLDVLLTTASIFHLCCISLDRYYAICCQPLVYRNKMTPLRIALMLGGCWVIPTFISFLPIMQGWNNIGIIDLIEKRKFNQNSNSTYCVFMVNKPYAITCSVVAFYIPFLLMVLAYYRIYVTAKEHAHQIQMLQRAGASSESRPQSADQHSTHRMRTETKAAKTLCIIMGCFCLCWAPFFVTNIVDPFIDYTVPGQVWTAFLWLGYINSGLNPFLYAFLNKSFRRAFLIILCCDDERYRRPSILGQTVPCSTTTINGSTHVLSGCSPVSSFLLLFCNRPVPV

Regarding `COCCCN1CCC(NC(=O)C(=O)c2cn(C(C)C)c3ccccc23)CC1` [Example 20, 2-(1-Isopropyl-1H-indol-3-yl)-N-(1-(3-methoxypropyl)piperidin-4-yl)-2-oxoacetamide TFA salt], the Ki (commonly the equilibrium dissociation constant of an inhibitor or competing ligand from its target) was determined as 0.0069 µM.
Still for that read-out and setting: the figure for `CCN(CC)CCNC(=O)C(=O)c1cn(C(C)C)c2ccccc12` [Example 3, N-(2-(Diethylamino)ethyl)-2-(1-isopropyl-1H-indol-3-yl)-2-oxoacetamide hydrochloride] is 0.008 µM; for `CC(C)n1cc(C(=O)C(=O)NCCN2CCCC2)c2ccccc21` [Example 10, 2-(1-Isopropyl-1H-indol-3-yl)-2-oxo-N-(2-(pyrrolidin-1-yl)ethyl)acetamide] it is 0.013 µM; for `CC(C)CN1CCC(CNC(=O)C(=O)c2cn(C(C)C)c3ccccc23)CC1` [Example 15, N-((1-Isobutylpiperidin-4-yl)methyl)-2-(1-isopropyl-1H-indol-3-yl)-2-oxoacetamide] it is 0.016 µM.
Still for that read-out and setting: the figure for `Cc1ccc2c(c1)c(C(=O)C(=O)NCCN1CCCCC1)cn2C(C)C` [Example 12, 2-(1-isopropyl-5-methyl-1H-indol-3-yl)-2-oxo-N-(2-(piperidin-1-yl)ethyl)acetamide] is 0.071 µM; for `CCC(C)n1cc(C(=O)C(=O)NCCN2CCCCC2)c2ccccc21` (centres unmarked) [Example 5, 2-(1-sec-Butyl-1H-indol-3-yl)-2-oxo-N-(2-(piperidin-1-yl)ethyl)acetamide hydrochloride] it is 0.031 µM.
Same read-out and setting: the figure for `CC(C)n1cc(C(=O)C(=O)NCCN2CCCCC2)c2ccc(N)c(Cl)c21` [Example 9, 2-(6-Amino-7-chloro-1-isopropyl-1H-indol-3-yl)-2-oxo-N-(2-(piperidin-1-yl)ethyl)acetamide hydrochloride] is 0.1 µM.
With `CCCC1CCN(CCNC(=O)C(=O)c2cn(C(C)C)c3ccccc23)CC1` [Example 18, 2-(1-Isopropyl-1H-indol-3-yl)-2-oxo-N-(2-(4-propylpiperidin-1-yl)ethyl)acetamide TFA salt], the inhibition (in general, the drop in the measured response relative to a control, in per cent) at 0.3 µM came out at 99% and the inhibition at 3 µM was 102%.
Consider `CC(C)n1cc(C(=O)C(=O)NCCN2CCCCC2)c2ccc([N+](=O)[O-])cc21` [Example 7, 2-(1-Isopropyl-6-nitro-1H-indol-3-yl)-2-oxo-N-(2-(piperidin-1-yl)ethyl)acetamide hydrochloride], for which the Ki amounted to 2.7 µM.
On the same count and under the same terms, the value for `CC(C)n1cc(C(=O)C(=O)NCCN2CCCCC2)c2ccc(N)cc21` [Example 8, 2-(6-Amino-1-isopropyl-1H-indol-3-yl)-2-oxo-N-(2-(piperidin-1-yl)ethyl)acetamide hydrochloride] was 0.75 µM; that for `CC(C)n1cc(C(=O)C(=O)NC2CCN(CCCO)CC2)c2ccccc21` [Example 13, N-(1-(3-Hydroxypropyl)piperidin-4-yl)-2-(1-isopropyl-1H-indol-3-yl)-2-oxoacetamide] was 0.0024 µM; that for `CCCCN1CCC(NC(=O)C(=O)c2cn(C(C)C)c3ccccc23)CC1` [Example 19, N-(1-Butylpiperidin-4-yl)-2-(1-isopropyl-1H-indol-3-yl)-2-oxoacetamide] was 0.0025 µM.
Same read-out and setting: the value for `CC(C)n1cc(C(=O)C(=O)NCCCN2CCCCC2)c2ccccc21` [Example 1, 2-(1-Isopropyl-1H-indol-3-yl)-2-oxo-N-(3-(piperidin-1-yl)propyl)acetamide hydrochloride] was 0.007 µM; that for `CC(C)n1cc(C(=O)C(=O)NCCN2CCC(C(F)(F)F)CC2)c2ccccc21` [Example 16, 2-(1-Isopropyl-1H-indol-3-yl)-2-oxo-N-(2-(4-(trifluoromethyl)piperidin-1-yl)ethyl)acetamide] was 0.023 µM.
As to `CC(C)n1cc(C(=O)C(=O)NC2CCN(CCNS(C)(=O)=O)CC2)c2ccccc21` [Example 21, 2-(1-Isopropyl-1H-indol-3-yl)-N-(1-(2-(methylsulfonamido)ethyl)piperidin-4-yl)-2-oxoacetamide TFA salt], the inhibition at 0.3 µM came to 95% and the inhibition at 3 µM stood at 101%.
As for `CCCCC1CCN(CCNC(=O)C(=O)c2cn(C(C)C)c3ccccc23)CC1` [Example 24, N-(2-(4-Butylpiperidin-1-yl)ethyl)-2-(1-isopropyl-1H-indol-3-yl)-2-oxoacetamide], the inhibition at 0.3 µM came out at 95% and the inhibition at 3 µM was 101%.
Consider `CC(C)n1cc(C(=O)C(=O)NCCN2CCCCC2)c2cccnc21` [Example 17, 2-(1-Isopropyl-1H-pyrrolo[2,3-b]pyridin-3-yl)-2-oxo-N-(2-(piperidin-1-yl)ethyl)acetamide], for which the Ki is 0.022 µM.
In the case of `CC(C)n1cc(C(=O)C(=O)NCCN2CCC(CCO)CC2)c2ccccc21` [Example 22, N-(2-(4-(2-Hydroxyethyl)piperidin-1-yl)ethyl)-2-(1-isopropyl-1H-indol-3-yl)-2-oxoacetamide hydrochloride], the inhibition at 0.3 µM was 99% and the inhibition at 3 µM turned out to be 101%.
In the same order, the values of `CCC1CCN(CCNC(=O)C(=O)c2cn(C(C)C)c3ccccc23)CC1` [Example 23, N-(2-(4-ethylpiperidin-1-yl)ethyl)-2-(1-isopropyl-1H-indol-3-yl)-2-oxoacetamide hydrochloride] are 99% and 101%.
As for `CCCN1CCC(NC(=O)C(=O)c2cn(C(C)C)c3ccccc23)CC1` [Example 14, 2-(1-Isopropyl-1H-indol-3-yl)-2-oxo-N-(1-propylpiperidin-4-yl)acetamide], the Ki turned out to be 0.0027 µM.
The same measure, in the same setting: the figure for `CC(C)n1cc(C(=O)C(=O)NCCN2CCCCC2)c2cc(Cl)ccc21` [Example 6, 2-(5-Chloro-1-isopropyl-1H-indol-3-yl)-2-oxo-N-(2-(piperidin-1-yl)ethyl)acetamide hydrochloride] is 0.047 µM.
Still for that read-out and setting: the value for `CC(C)n1cc(C(=O)C(=O)NCCN2CCCCC2)c2ccccc21` [Example 2, 2-(1-Isopropyl-1H-indol-3-yl)-2-oxo-N-(2-(piperidin-1-yl)ethyl)acetamide hydrochloride] was 0.005 µM.
Turning to `CCn1cc(C(=O)C(=O)NCCN2CCCCC2)c2ccccc21` [Example 4, 2-(1-Ethyl-1H-indol-3-yl)-2-oxo-N-(2-(piperidin-1-yl)ethyl)acetamide hydrochloride], the Ki turned out to be 0.005 µM.
Same read-out and setting: the figure for `COc1ccc2c(c1)c(C(=O)C(=O)NCCN1CCCCC1)cn2C(C)C` [Example 11, 2-(1-Isopropyl-5-methoxy-1H-indol-3-yl)-2-oxo-N-(2-(piperidin-1-yl)ethyl)acetamide] is 0.31 µM.
